Measurements taken from patent US20250326753A1, “DUAL CXCR4-BTK INHIBITORS” (X4 Pharmaceuticals, Inc., priority 2022, published 2025).
Read-outs that look alike come from different tables or passages of the source.

Key:
Assay type in all cases: biochemical
[1] = target: T1, LYN (Homo sapiens, UniProt P07948); assay: PanQinase kinase panel: LYN; conditions: read-out: INHIBITORY EFFECT @ 1 uM: LYN
T1 construct: purchased Reaction Biology Europe GmbH
Experimental: (§1) Screening procedures were performed in accordance with the company's on-line protocol [accessed on-line Mar.
(§2) For each kinase, the median value of the cpm of three wells was defined as “low control” (n=3). This value reflects unspecific binding of radioactivity to the plate in the absence of a protein kinase but in the presence of the substrate. Additionally, for each kinase the median value of the cpm of three other wells was taken as the “high control,” i.e. full activity in the absence of any inhibitor (n=3). The difference between high and low control of each enzyme was taken as 100% activity.
(§3) As part of the data evaluation the low control of each kinase was subtracted from the high control value as well as from their corresponding “compound values”. The residual activity (in %) for each compound well was calculated by using the following formula: Res. Activity (%)=100×[(signal of compound−low control)/(high control−low control)].

[2] = target: T2, AuroraA (Homo sapiens, UniProt O14965); assay: PanQinase kinase panel: AuroraA
T2 construct: purchased Reaction Biology Europe GmbH
T2 sequence (O14965 1-403): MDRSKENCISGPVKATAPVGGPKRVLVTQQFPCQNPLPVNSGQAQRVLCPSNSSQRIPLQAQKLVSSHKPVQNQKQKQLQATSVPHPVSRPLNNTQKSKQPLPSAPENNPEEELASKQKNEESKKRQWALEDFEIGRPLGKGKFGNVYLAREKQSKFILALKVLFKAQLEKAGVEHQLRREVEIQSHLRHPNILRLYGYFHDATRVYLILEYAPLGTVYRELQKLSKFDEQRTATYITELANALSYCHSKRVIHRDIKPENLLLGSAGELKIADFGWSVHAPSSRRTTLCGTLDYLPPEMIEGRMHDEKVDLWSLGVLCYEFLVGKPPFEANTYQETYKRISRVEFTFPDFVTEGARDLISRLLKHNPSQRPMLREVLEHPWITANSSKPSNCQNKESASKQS
Experimental: as §1, §2, §3

[3] = target: T3, EPHA6 (Homo sapiens, UniProt Q9UF33); assay: PanQinase kinase panel: EPHA6; conditions: read-out: INHIBITORY EFFECT @ 1 uM: EPHA6
T3 construct: purchased Reaction Biology Europe GmbH
T3 sequence (Q9UF33 23-1036): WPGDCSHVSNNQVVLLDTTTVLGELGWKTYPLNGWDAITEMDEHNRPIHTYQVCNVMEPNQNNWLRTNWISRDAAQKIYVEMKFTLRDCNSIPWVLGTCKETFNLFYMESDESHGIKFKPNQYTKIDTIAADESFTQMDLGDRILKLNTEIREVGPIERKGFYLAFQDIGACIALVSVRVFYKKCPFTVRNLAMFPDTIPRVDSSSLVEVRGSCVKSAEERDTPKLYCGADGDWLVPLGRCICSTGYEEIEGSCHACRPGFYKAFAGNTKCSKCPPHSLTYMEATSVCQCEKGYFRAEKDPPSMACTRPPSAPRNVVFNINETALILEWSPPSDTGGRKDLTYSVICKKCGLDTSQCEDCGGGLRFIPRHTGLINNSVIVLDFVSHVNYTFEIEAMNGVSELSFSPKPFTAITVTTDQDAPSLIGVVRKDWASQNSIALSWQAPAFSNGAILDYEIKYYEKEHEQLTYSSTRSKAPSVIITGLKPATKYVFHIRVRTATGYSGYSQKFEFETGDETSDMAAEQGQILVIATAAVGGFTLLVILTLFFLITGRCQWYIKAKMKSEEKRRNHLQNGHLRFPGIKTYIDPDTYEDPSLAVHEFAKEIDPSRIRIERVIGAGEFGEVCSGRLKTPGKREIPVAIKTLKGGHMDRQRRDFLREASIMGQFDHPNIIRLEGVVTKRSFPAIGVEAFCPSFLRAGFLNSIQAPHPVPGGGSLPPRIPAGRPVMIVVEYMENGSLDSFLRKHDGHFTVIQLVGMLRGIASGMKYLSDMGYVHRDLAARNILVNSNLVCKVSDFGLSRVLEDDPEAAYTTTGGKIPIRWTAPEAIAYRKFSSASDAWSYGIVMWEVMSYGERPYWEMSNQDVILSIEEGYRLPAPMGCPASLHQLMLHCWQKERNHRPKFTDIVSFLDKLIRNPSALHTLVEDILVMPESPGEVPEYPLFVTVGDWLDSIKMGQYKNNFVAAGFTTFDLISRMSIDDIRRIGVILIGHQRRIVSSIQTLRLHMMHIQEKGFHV
Experimental: as §1, §2, §3

[4] = target: T4, MUSK (Homo sapiens, UniProt O15146); assay: PanQinase kinase panel: MUSK
T4 construct: purchased Reaction Biology Europe GmbH
T4 sequence (O15146 24-869): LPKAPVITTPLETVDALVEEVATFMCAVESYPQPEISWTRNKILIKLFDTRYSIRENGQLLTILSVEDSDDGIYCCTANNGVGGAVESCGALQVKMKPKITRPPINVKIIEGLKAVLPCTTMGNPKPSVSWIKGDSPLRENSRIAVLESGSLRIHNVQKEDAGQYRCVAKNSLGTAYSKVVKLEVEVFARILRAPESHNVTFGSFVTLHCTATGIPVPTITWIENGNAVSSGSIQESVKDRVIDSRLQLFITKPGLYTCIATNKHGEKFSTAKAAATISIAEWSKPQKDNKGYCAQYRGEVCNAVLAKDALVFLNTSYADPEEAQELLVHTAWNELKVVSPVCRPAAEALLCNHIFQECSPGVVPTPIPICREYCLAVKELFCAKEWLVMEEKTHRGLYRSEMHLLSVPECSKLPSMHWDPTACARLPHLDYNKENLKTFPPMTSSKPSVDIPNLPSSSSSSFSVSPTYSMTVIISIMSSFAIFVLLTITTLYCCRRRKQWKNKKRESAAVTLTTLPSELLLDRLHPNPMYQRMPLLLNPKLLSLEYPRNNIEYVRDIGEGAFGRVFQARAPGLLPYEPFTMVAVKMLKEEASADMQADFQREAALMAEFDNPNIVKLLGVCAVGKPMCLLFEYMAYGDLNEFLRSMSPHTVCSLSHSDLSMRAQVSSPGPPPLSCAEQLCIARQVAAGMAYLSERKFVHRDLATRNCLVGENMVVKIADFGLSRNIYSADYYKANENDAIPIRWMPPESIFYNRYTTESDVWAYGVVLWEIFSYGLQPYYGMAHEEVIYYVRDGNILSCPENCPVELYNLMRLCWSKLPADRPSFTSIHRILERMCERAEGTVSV
Experimental: as §1, §2, §3

[5] = at 1 μM, read-out: inhibition of AuroraA
[6] = read-out: INHIBITORY EFFECT @ 1 uM: AuroraA
[7] = read-out: INHIBITORY EFFECT @ 1 uM: MUSK

T1 sequence (P07948 whole entry): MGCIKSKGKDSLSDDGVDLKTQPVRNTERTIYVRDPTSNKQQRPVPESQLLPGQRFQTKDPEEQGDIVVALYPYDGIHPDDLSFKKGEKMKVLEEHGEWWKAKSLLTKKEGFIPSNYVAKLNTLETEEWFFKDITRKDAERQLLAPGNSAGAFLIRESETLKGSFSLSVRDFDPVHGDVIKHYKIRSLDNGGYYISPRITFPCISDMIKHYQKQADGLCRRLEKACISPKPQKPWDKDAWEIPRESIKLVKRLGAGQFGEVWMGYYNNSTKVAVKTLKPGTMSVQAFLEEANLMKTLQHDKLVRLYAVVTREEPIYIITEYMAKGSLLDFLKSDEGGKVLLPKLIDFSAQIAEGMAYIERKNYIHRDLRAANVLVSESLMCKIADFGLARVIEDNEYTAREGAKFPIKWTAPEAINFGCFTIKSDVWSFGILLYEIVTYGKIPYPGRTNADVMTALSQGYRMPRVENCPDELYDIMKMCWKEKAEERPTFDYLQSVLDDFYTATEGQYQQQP

SMILES	inhibition at 1 µM [1]	inhibition at 1 µM [2, 5]	inhibition at 1 µM [2, 6]	inhibition at 1 µM [3]	inhibition at 1 µM ([4]; at 1 μM, read-out: inhibition of MUSK)	inhibition at 1 µM [4, 7]
O=C(c1ccc(Oc2ccccc2)cc1Cl)c1c[nH]c2ncnc(N[C@@H]3CC[C@@H](CO)OC3)c12 [ARQ-531, (2-chloro-4-phenoxyphenyl) (4-(((3R,6S)-6-(hydroxymethyl)tetrahydro-2H-pyran-3-yl)amino)-7H-pyrrolo[2,3-d]pyrimidin-5-yl) methanone]	70 to 89%	≥ 50%	50 to 69%	50 to 69%	–	–
Cc1cccnc1[C@H]1CCC[C@@H](c2ncccc2C)N1CCN1CCN(C(=O)c2ccc(-c3cc4c(-c5cccc(NC(=O)c6ccccc6)c5C)ncnc4[nH]3)cc2)CC1 [Compound I-10, N-(3-(6-(4-(4-(2-((2R,6S)-2,6-bis(3-methylpyridin-2-yl)piperidin-1-yl)ethyl)piperazine-1-carbonyl)phenyl)-7H-pyrrolo[2,3-d]pyrimidin-4-yl)-2-methylphenyl)benzamide]	< 50%	50 to 89%	50 to 69%	< 50%	50 to 89%	70 to 89%
COc1ccc(F)cc1C(=O)NCc1ccc(-c2nn([C@@H](C)C(F)(F)F)c(N)c2C(N)=O)cc1 [LOXO-305, pirtobrutinib]	< 50%	–	< 50%	< 50%	–	< 50%
C=CC(=O)N1CCC([C@@H]2CCNc3c(C(N)=O)c(-c4ccc(Oc5ccccc5)cc4)nn32)CC1 [Zanubrutinib, (7S)-2-(4-phenoxyphenyl)-7-(1-prop-2-enoylpiperidin-4-yl)-4,5,6,7-tetrahydropyrazolo[1,5-a]pyrimidine-3-carboxamide]	–	–	< 50%	< 50%	–	< 50%
